Test results taken from US20260284018A1, “DUAL INHIBITORS OF DYRK1A AND 5-HT2 FOR TREATING A BRAIN DISORDER” (THE REGENTS OF THE UNIVERSITY OF CALIFORNIA, priority 2023, published 2026).

Tests used:
CSF1R = target: T1, CSF1R (Homo sapiens, UniProt P07333); conditions: 10 μM; cited from earlier work
T1 construct: purchased Eurofins DiscoverX

EGFR(L858R) [1] = target: T2, EGFR(L858R) (Homo sapiens, UniProt P00533, L858R); conditions: 10 μM; cited from earlier work
T2 construct: purchased Eurofins DiscoverX

MKNK1 = target: T3, MKNK1 (Homo sapiens, UniProt Q9BUB5); conditions: 10 μM; cited from earlier work
T3 construct: purchased Eurofins DiscoverX (KINOMEscan scanEDGE service)

RET [2] = target: T4, RET (Homo sapiens, UniProt P07949); conditions: 10 μM; cited from earlier work
T4 construct: purchased Eurofins DiscoverX KINOMEscan scanEDGE

ADCK3 = target: T5, ADCK3 (Homo sapiens, UniProt Q8NI60); test: KINOMEscan scanEDGE; type: binding; conditions: read-out: Percent Control
T5 construct: purchased Eurofins DiscoverX
Protocol: (§1) Kinome Scan. Compound HTW_A_8 fumarate was screened against 97 kinases at a single concentration of 10 μM at Eurofins DiscoverX using their KINOMEscan™ scanEDGE assay. The results are reported as the % activity relative to DMSO control, where lower values indicate higher affinity. See Table 1 for the full kinome profile.

AKT1 = target: T6, AKT1 (Homo sapiens, UniProt P31749); test: KINOMEscan scanEDGE; type: binding; conditions: read-out: Percent Control
T6 construct: purchased Eurofins DiscoverX
Protocol: as §1

BRAF = target: T7, BRAF (Homo sapiens, UniProt P15056); test: KINOMEscan scanEDGE; type: binding; conditions: read-out: Percent Control
T7 construct: purchased Eurofins DiscoverX
Protocol: as §1

BTK = target: T8, BTK (Homo sapiens, UniProt Q06187); test: KINOMEscan scanEDGE; type: binding; conditions: read-out: Percent Control
T8 construct: purchased Eurofins DiscoverX
Protocol: as §1

CDK7 = target: T9, CDK7 (Homo sapiens, UniProt P50613); test: KINOMEscan scanEDGE; type: binding; conditions: read-out: Percent Control
T9 construct: purchased Eurofins DiscoverX
Protocol: as §1

DCAMKL1 = target: T10, DCAMKL1 (Homo sapiens, UniProt O15075); test: KINOMEscan scanEDGE; type: binding; conditions: read-out: Percent Control
T10 construct: purchased Eurofins DiscoverX
Protocol: as §1

DYRK1B = target: T11, DYRK1B (Homo sapiens, UniProt Q9Y463); test: KINOMEscan scanEDGE; type: binding; conditions: read-out: Percent Control
T11 construct: purchased Eurofins DiscoverX
Protocol: as §1

EGFR = target: T12, EGFR (Homo sapiens, UniProt P00533); test: KINOMEscan scanEDGE; type: binding; conditions: read-out: Percent Control
T12 construct: purchased Eurofins DiscoverX
Protocol: as §1

EGFR(L858R) [3] = target: T2, EGFR(L858R); test: KINOMEscan scanEDGE; type: binding; conditions: read-out: Percent Control
Protocol: as §1

FAK = target: T13, FAK (Homo sapiens, UniProt Q05397); test: KINOMEscan scanEDGE; type: binding; conditions: read-out: Percent Control
T13 construct: purchased Eurofins DiscoverX
Protocol: as §1

FGFR3 = target: T14, FGFR3 (Homo sapiens, UniProt P22607); test: KINOMEscan scanEDGE; type: binding; conditions: read-out: Percent Control
T14 construct: purchased Eurofins DiscoverX
Protocol: as §1

IGF1R = target: T15, IGF1R (Homo sapiens, UniProt P08069); test: KINOMEscan scanEDGE; type: binding; conditions: read-out: Percent Control
T15 construct: purchased Eurofins DiscoverX
Protocol: as §1

IKK-alpha = target: T16, IKK-alpha (Homo sapiens, UniProt O15111); test: KINOMEscan scanEDGE; type: binding; conditions: read-out: Percent Control
T16 construct: purchased Eurofins DiscoverX
Protocol: as §1

IKK-beta = target: T17, IKK-beta (Homo sapiens, UniProt O14920); test: KINOMEscan scanEDGE; type: binding; conditions: read-out: Percent Control
T17 construct: purchased Eurofins DiscoverX
Protocol: as §1

INSR = target: T18, INSR (Homo sapiens, UniProt P06213); test: KINOMEscan scanEDGE; type: binding; conditions: read-out: Percent Control
T18 construct: purchased Eurofins DiscoverX
Protocol: as §1

[4] = target: T19, JAK3(JH1domain-catalytic) (Homo sapiens, UniProt P52333); test: KINOMEscan scanEDGE; type: binding; conditions: read-out: Percent Control
T19 construct: JAK3(JH1domain-catalytic); purchased Eurofins DiscoverX
Protocol: as §1

JNK3 = target: T20, JNK3 (Homo sapiens, UniProt P53779); test: KINOMEscan scanEDGE; type: binding; conditions: read-out: Percent Control
T20 construct: purchased Eurofins DiscoverX
Protocol: as §1

KIT = target: T21, KIT (Homo sapiens, UniProt P10721); test: KINOMEscan scanEDGE; type: binding; conditions: read-out: Percent Control
T21 construct: purchased Eurofins DiscoverX
Protocol: as §1

KIT(D816V) = target: T22, KIT(D816V) (Homo sapiens, UniProt P10721, D816V); test: KINOMEscan scanEDGE; type: binding; conditions: read-out: Percent Control
T22 construct: purchased Eurofins DiscoverX
Protocol: as §1

MAPKAPK2 = target: T23, MAPKAPK2 (Homo sapiens, UniProt P49137); test: KINOMEscan scanEDGE; type: binding; conditions: read-out: Percent Control
T23 construct: purchased Eurofins DiscoverX (KINOMEscan scanEDGE service)
Protocol: as §1

MARK3 = target: T24, MARK3 (Homo sapiens, UniProt P27448); test: KINOMEscan scanEDGE; type: binding; conditions: read-out: Percent Control
T24 construct: purchased Eurofins DiscoverX (KINOMEscan scanEDGE service)
Protocol: as §1

PAK1 = target: T25, PAK1 (Homo sapiens, UniProt Q13153); test: KINOMEscan scanEDGE; type: binding; conditions: read-out: Percent Control
T25 construct: purchased Eurofins DiscoverX (KINOMEscan scanEDGE service)
Protocol: as §1

PAK4 = target: T26, PAK4 (Homo sapiens, UniProt O96013); test: KINOMEscan scanEDGE; type: binding; conditions: read-out: Percent Control
T26 construct: purchased Eurofins DiscoverX (KINOMEscan scanEDGE service)
Protocol: as §1

PIK3CA = target: T27, PIK3CA (Homo sapiens, UniProt P42336); test: KINOMEscan scanEDGE; type: binding; conditions: read-out: Percent Control
T27 construct: purchased Eurofins DiscoverX (KINOMEscan scanEDGE service)
Protocol: as §1

PLK1 = target: T28, PLK1 (Homo sapiens, UniProt P53350); test: KINOMEscan scanEDGE; type: binding; conditions: read-out: Percent Control
T28 construct: purchased Eurofins DiscoverX KINOMEscan scanEDGE
Protocol: as §1

PLK3 = target: T29, PLK3 (Homo sapiens, UniProt Q9H4B4); test: KINOMEscan scanEDGE; type: binding; conditions: read-out: Percent Control
T29 construct: purchased Eurofins DiscoverX KINOMEscan scanEDGE
Protocol: as §1

PRKCE = target: T30, PRKCE (Homo sapiens, UniProt Q02156); test: KINOMEscan scanEDGE; type: binding; conditions: read-out: Percent Control
T30 construct: purchased Eurofins DiscoverX KINOMEscan scanEDGE
Protocol: as §1

RET [5] = target: T4, RET; test: KINOMEscan scanEDGE; type: binding; conditions: read-out: Percent Control
Protocol: as §1

RIOK2 = target: T31, RIOK2 (Homo sapiens, UniProt Q9BVS4); test: KINOMEscan scanEDGE; type: binding; conditions: read-out: Percent Control
T31 construct: purchased Eurofins DiscoverX KINOMEscan scanEDGE
Protocol: as §1

[6] = target: T32, RSK2(Kin.Dom.1-N-terminal) (Homo sapiens, UniProt P51812); test: KINOMEscan scanEDGE; type: binding; conditions: read-out: Percent Control
T32 construct: RSK2(Kin.Dom.1-N-terminal); purchased Eurofins DiscoverX KINOMEscan scanEDGE
Protocol: as §1

SNARK = target: T33, SNARK (Homo sapiens, UniProt Q9H093); test: KINOMEscan scanEDGE; type: binding; conditions: read-out: Percent Control
T33 construct: purchased Eurofins DiscoverX KINOMEscan scanEDGE
Protocol: as §1

SRC = target: T34, SRC (Homo sapiens, UniProt P12931); test: KINOMEscan scanEDGE; type: binding; conditions: read-out: Percent Control
T34 construct: purchased Eurofins DiscoverX KINOMEscan scanEDGE
Protocol: as §1

TSSK1B = target: T35, TSSK1B (Homo sapiens, UniProt Q9BXA7); test: KINOMEscan scanEDGE; type: binding; conditions: read-out: Percent Control
T35 construct: purchased Eurofins DiscoverX KINOMEscan scanEDGE
Protocol: as §1

p38-alpha = target: T36, p38-alpha (Homo sapiens, UniProt Q16539); test: KINOMEscan scanEDGE; type: binding; conditions: read-out: Percent Control
T36 construct: purchased Eurofins DiscoverX (KINOMEscan scanEDGE service)
Protocol: as §1

T4 sequence (P07949 29-1114): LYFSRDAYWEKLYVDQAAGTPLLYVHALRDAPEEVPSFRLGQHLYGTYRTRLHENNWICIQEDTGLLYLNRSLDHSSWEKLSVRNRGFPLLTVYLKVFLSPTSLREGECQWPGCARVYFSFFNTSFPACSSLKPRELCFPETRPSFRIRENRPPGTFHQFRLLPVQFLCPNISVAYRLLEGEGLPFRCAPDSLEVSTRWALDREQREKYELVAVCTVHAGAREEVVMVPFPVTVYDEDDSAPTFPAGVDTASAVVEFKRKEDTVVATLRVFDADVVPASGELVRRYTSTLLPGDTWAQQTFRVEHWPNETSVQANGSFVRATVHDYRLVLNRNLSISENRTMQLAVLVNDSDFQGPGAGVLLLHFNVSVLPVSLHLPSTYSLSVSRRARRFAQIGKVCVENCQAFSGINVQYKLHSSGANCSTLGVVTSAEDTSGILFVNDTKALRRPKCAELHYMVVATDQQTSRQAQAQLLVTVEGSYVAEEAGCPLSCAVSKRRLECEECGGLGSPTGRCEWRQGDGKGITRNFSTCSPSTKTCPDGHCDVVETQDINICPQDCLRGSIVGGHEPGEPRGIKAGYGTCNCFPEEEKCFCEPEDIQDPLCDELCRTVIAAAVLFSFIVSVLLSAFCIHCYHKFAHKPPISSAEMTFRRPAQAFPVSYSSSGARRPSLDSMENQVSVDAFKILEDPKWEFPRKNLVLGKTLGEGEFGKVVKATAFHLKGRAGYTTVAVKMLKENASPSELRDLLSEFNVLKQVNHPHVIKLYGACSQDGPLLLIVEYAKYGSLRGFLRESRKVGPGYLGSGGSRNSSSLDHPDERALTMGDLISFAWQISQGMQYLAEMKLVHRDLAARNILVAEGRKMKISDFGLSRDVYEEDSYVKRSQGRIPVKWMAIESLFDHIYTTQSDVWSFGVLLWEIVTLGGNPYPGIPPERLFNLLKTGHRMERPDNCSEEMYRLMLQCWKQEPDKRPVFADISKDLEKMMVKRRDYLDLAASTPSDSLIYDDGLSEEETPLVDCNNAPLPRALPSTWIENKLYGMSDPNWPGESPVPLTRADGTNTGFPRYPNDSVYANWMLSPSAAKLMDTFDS
T23 sequence (P49137 whole entry): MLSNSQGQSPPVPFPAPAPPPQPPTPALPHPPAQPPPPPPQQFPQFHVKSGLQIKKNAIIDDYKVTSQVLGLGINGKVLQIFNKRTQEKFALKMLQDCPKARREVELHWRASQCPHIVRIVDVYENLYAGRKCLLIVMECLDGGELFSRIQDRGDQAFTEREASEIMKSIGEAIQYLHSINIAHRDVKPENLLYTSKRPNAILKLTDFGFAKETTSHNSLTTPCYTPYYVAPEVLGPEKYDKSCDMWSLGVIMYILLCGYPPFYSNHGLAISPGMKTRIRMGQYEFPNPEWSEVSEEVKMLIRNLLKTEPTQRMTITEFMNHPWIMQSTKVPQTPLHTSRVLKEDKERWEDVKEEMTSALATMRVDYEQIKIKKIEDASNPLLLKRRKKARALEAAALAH
T16 sequence (O15111 whole entry): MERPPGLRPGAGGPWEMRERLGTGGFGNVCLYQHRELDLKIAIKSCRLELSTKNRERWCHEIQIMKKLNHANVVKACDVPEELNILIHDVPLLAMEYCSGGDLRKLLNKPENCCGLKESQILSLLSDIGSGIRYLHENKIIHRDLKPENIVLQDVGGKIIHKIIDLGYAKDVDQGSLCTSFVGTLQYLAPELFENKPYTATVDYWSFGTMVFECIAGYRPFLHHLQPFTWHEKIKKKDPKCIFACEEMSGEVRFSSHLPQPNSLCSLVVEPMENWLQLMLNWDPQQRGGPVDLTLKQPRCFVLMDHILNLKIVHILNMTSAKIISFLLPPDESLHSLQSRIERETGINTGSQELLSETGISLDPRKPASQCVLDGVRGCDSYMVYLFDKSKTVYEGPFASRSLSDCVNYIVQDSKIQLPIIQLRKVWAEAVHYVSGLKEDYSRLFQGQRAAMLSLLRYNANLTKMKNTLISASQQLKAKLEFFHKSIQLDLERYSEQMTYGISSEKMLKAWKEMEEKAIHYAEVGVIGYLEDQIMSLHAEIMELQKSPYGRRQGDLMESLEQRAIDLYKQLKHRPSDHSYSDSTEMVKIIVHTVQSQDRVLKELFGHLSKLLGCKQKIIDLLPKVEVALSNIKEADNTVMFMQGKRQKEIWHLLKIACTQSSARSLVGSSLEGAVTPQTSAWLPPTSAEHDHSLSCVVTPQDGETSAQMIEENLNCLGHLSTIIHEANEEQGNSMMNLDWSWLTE
T10 sequence (O15075 whole entry): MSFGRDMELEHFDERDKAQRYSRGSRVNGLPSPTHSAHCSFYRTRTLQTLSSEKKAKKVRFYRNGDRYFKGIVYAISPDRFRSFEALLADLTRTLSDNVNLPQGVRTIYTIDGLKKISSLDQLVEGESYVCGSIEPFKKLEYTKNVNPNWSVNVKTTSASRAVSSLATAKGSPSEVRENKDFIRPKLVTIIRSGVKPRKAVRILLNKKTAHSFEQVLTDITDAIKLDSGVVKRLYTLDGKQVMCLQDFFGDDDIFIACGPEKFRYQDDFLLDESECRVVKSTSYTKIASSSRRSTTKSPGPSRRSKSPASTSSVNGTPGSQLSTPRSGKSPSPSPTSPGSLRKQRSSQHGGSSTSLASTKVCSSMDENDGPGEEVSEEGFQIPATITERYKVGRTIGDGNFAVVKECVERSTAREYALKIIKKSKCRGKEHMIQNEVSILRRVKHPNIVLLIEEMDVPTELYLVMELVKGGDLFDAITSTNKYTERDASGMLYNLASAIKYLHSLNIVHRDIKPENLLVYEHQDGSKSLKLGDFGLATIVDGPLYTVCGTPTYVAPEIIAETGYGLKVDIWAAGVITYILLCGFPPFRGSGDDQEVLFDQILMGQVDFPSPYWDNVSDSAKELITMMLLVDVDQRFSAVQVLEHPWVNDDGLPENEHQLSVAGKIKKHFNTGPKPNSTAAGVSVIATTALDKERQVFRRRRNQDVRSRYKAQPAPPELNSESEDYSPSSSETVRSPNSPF
T3 sequence (Q9BUB5 whole entry): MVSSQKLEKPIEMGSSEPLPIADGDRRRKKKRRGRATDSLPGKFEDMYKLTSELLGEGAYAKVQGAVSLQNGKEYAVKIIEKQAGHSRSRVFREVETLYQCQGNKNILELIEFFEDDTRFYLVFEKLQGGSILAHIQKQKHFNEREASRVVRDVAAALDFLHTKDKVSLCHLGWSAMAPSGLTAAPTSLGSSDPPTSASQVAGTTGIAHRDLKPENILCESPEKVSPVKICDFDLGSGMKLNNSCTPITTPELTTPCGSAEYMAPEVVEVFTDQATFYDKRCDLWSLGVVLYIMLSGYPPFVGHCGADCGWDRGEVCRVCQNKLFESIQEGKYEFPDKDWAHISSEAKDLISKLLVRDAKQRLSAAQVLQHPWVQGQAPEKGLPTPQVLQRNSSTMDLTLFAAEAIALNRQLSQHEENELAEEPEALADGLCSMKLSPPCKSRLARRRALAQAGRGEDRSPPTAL
T27 sequence (P42336 whole entry): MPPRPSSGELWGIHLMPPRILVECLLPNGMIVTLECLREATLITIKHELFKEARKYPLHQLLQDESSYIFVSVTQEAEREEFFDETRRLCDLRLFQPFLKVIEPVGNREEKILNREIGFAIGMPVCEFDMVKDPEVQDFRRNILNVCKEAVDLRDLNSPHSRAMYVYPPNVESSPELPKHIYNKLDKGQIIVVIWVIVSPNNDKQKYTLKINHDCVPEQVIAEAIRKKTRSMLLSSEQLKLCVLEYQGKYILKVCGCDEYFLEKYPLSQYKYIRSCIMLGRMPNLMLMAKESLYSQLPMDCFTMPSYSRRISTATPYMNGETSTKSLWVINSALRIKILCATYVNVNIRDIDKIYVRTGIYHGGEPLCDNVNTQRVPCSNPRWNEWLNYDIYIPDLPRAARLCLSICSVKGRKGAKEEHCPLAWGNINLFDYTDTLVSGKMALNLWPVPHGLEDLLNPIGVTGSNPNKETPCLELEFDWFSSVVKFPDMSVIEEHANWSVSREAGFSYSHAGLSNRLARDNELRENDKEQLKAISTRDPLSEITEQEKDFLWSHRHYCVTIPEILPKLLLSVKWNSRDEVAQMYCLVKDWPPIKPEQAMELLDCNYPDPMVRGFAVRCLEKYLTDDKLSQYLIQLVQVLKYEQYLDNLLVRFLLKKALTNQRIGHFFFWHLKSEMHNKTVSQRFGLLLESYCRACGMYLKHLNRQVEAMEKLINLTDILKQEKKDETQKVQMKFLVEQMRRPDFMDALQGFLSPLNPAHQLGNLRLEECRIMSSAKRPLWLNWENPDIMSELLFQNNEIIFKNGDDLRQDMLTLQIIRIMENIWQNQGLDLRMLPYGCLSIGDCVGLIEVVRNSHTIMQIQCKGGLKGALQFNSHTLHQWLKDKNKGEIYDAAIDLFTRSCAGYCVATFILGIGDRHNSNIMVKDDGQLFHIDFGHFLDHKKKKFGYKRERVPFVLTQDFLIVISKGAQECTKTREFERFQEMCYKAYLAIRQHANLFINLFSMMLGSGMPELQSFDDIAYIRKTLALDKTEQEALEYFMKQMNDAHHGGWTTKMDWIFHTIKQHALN
T9 sequence (P50613 whole entry): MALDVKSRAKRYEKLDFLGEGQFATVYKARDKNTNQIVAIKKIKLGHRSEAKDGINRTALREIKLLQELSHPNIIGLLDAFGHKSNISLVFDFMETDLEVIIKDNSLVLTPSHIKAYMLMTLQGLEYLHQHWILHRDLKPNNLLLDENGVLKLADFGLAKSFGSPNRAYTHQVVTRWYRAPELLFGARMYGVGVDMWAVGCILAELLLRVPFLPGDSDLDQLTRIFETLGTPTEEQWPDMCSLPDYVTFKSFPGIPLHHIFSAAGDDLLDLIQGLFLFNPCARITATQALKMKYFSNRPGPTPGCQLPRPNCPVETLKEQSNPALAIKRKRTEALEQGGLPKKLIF

In the case of COc1ccc2c(c1)[nH]c1c(C)nccc12 [Harmine, harmine], the “Percent Control” value (CSF1R) is listed as 88%, the “Percent Control” value (EGFR(L858R) [1]) is listed as 81% and the “Percent Control” value (MKNK1) is listed as 79%. The “Percent Control” value (RET [2]) was 91%.
COc1ccc2c3ccnc(C)c3n(CCN(C)C)c2c1.O=C(O)/C=C/C(=O)O [HTW_A_8 fumarate, 2-(7-methoxy-1-methyl-9H-pyrido[3,4-b]indol-9-yl)-N,N-dimethylethan-1-amine Fumarate Salt (2:3)] showed a remaining binding at 10 µM (ADCK3) of 100%, a remaining binding at 10 µM (AKT1) of 96% and a remaining binding at 10 µM (BRAF) of 100%. The remaining binding at 10 µM (BTK) was 100%, the remaining binding at 10 µM (CDK7) was 15% and the remaining binding at 10 µM (DCAMKL1) was 98%. The remaining binding at 10 µM (DYRK1B) was 10%, the remaining binding at 10 µM (EGFR) was 84% and the remaining binding at 10 µM (EGFR(L858R) [3]) was 87%. For the same molecule, the remaining binding at 10 µM (FAK) was 100%, the remaining binding at 10 µM (FGFR3) was 95% and the remaining binding at 10 µM (IGF1R) was 85%. For the same molecule, the remaining binding at 10 µM (IKK-alpha) was 100%, the remaining binding at 10 µM (IKK-beta) was 100% and the remaining binding at 10 µM (INSR) was 100%. For the same molecule, the remaining binding at 10 µM [4] was 100%, the remaining binding at 10 µM (JNK3) was 91% and the remaining binding at 10 µM (KIT) was 100%. It also gave a remaining binding at 10 µM (KIT(D816V)) of 100%, a remaining binding at 10 µM (MAPKAPK2) of 99% and a remaining binding at 10 µM (MARK3) of 100%. It also gave a remaining binding at 10 µM (PAK1) of 100%, a remaining binding at 10 µM (PAK4) of 100% and a remaining binding at 10 µM (PIK3CA) of 100%. For the same molecule, the remaining binding at 10 µM (PLK1) was 100%, the remaining binding at 10 µM (PLK3) was 96% and the remaining binding at 10 µM (PRKCE) was 100%. It also gave a remaining binding at 10 µM (RET [5]) of 95%, a remaining binding at 10 µM (RIOK2) of 83% and a remaining binding at 10 µM [6] of 99%. It also gave a remaining binding at 10 µM (SNARK) of 100%, a remaining binding at 10 µM (SRC) of 99% and a remaining binding at 10 µM (TSSK1B) of 100%. The remaining binding at 10 µM (p38-alpha) was 100%.
